Test [1] addresses T1, NLRP3 (Homo sapiens, UniProt Q96P20). Description: Human whole blood IL1β release assay (LPS + nigericin, AlphaLisa IL-1β; HWB IC50). It is filed as cell-based. The arrangement: Human whole blood in Li-heparin tubes was obtained from healthy donors from a volunteer donor panel; from tissue; host or cells: human whole blood from healthy donors. As to conditions: IL-1β release. The procedure, abridged:
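IL-1β in plasma supernatant quantified by AlphaLisa after nigericin (10 μM final, 1 h, 37 °C) triggering of human whole blood that had been preincubated 3 h with LPS (1 μg/ml) plus compound (half-log, 8 points, from 10 μM). IC50 by variable-slope four-parameter regression.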
Background: In Alpha technology, singlet oxygen from a donor bead excites a nearby acceptor bead.

For test [2], the target named is T1, NLRP3. As to the kind of experiment: THP-1 cells pyroptosis assay (LPS + nigericin, resazurin readout; THP IC50). It counts as cell-based. The arrangement: Seed THP-1 cells (25,000 cells/well) containing 1.0 μg/ml LPS in 40 μl of RPMI medium; host or cells: THP-1 cells. The procedure, abridged: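 IC50 from 4-parameter fit of resazurin fluorescence (100 μM, 1-2 hrs), reflecting surviving cells after pyroptosis. LPS-primed (1 μg/ml) THP-1 cells in FBS-free RPMI got compound for 3 hrs at 37° C (top 10 μM, half-log, 8 points), then nigericin 5 μM for 1 hr.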
On the technique in general: The colour change of resazurin is a common sign of viable cells or microbes.

Structures can show the parent of a compound that is named as a salt.

One may read the IC50 as the concentration at which inhibition is half-maximal.

T1 sequence (Q96P20 whole entry): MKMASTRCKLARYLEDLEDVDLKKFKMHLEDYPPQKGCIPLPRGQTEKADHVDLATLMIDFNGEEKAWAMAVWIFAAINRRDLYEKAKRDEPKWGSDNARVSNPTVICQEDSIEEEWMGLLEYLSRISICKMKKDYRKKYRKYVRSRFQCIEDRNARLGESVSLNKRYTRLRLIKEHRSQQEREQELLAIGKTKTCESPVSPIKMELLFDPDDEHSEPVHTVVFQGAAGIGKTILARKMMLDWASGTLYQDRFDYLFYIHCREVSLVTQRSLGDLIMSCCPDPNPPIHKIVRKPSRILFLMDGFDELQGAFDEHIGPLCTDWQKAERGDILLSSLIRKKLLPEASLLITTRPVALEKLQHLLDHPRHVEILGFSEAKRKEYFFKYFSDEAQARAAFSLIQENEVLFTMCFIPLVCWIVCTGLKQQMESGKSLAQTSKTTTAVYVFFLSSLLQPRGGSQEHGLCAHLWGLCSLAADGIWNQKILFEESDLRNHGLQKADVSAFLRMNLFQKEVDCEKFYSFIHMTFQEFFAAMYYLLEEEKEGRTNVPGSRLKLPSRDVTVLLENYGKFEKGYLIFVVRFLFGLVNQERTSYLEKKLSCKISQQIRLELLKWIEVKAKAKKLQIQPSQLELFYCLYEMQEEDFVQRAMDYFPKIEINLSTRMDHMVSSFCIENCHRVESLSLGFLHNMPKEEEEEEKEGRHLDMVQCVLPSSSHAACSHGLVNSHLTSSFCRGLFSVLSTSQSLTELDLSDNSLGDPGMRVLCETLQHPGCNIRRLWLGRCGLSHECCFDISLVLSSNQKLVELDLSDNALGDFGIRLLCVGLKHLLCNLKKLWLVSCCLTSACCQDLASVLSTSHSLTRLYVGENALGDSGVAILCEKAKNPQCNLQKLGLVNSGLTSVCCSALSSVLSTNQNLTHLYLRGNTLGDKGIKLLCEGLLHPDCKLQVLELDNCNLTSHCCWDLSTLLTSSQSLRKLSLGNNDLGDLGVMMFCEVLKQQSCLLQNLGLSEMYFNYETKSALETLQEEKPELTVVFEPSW

As for `COc1cc(-c2ccc3c(c2NC(=O)NS(=O)(=O)c2ccn(C(C)(C)CN4CC(C)C4)n2)CCC3)ccn1` [Example 236, N-((5-(2-Methoxypyridin-4-yl)-2,3-dihydro-1H-inden-4-yl)carbamoyl)-1-(2-methyl-1-(3-methylazetidin-1-yl)propan-2-yl)-1H-pyrazole-3-sulfonamide], the IC50 at NLRP3 [1] and at NLRP3 [2] was ≤ 500 nM throughout.

With `CC(C)n1ccc(S(=O)(=O)NC(=O)Nc2c(-c3ccnc(OC(F)F)c3)ccc3c2CCC3)n1` [Example 237, N-((5-(2-(Difluoromethoxy)pyridin-4-yl)-2,3-dihydro-1H-inden-4-yl)carbamoyl)-1-isopropyl-1H-pyrazole-3-sulfonamide, sodium salt], the IC50 at NLRP3 [1] was ≤ 1000 nM; on NLRP3 [2] it was ≤ 500 nM.

For the compound `COc1cc(-c2ccc3c(c2NC(=O)NS(=O)(=O)c2nn(C(C)C)cc2F)CCC3)ccn1` [Example 239, 4-Fluoro-1-isopropyl-N-((5-(2-methoxypyridin-4-yl)-2,3-dihydro-1H-inden-4-yl)carbamoyl)-1H-pyrazole-3-sulfonamide], the IC50 at NLRP3 [1] and on NLRP3 [2] was ≤ 500 nM in each case.

Take `COc1cc(-c2ccc3c(c2NC(=O)NS(=O)(=O)c2ccn(C(C)(C)CN4CC(F)C4)n2)CCC3)ccn1` [Example 242, 1-(1-(3-Fluoroazetidin-1-yl)-2-methylpropan-2-yl)-N-((5-(2-methoxypyridin-4-yl)-2,3-dihydro-1H-inden-4-yl)carbamoyl)-1H-pyrazole-3-sulfonamide, sodium salt]: the half-maximal inhibitory concentration (IC50) at NLRP3 [1] and on NLRP3 [2] was ≤ 500 nM in each case.

Take `COc1cc(-c2ccc3c(c2NC(=O)NS(=O)(=O)c2ccn(C(C)(C)CN4CCCC4)n2)CCC3)ccn1` [Example 243, N-((5-(2-Methoxypyridin-4-yl)-2,3-dihydro-1H-inden-4-yl)carbamoyl)-1-(2-methyl-1-(pyrrolidin-1-yl)propan-2-yl)-1H-pyrazole-3-sulfonamide, sodium salt]: the concentration for half-maximal inhibition (IC50) on NLRP3 [1] and at NLRP3 [2] was ≤ 500 nM throughout.

In the case of `COc1cc(-c2ccc3c(c2NC(=O)NS(=O)(=O)c2ccn(C4CCC4)n2)CCC3)ccn1` [Example 244, 1-Cyclobutyl-N-((5-(2-methoxypyridin-4-yl)-2,3-dihydro-1H-inden-4-yl)carbamoyl)-1H-pyrazole-3-sulfonamide, sodium salt], the IC50 on NLRP3 [1] and at NLRP3 [2] was ≤ 500 nM in each case.

Consider `Cc1cc(-c2ccc3c(c2NC(=O)NS(=O)(=O)c2ccn(C(C)C)n2)CCC3)ccn1` [Example 245, 1-Isopropyl-N-((5-(2-methylpyridin-4-yl)-2,3-dihydro-1H-inden-4-yl)carbamoyl)-1H-pyrazole-3-sulfonamide, sodium salt], for which the IC50 at NLRP3 [1] and on NLRP3 [2] was ≤ 500 nM throughout.

Consider `COc1cc(-c2ccc3c(c2NC(=O)NS(=O)(=O)c2cnn(C(C)C)n2)CCC3)ccn1` [Example 246, 2-Isopropyl-N-((5-(2-methoxypyridin-4-yl)-2,3-dihydro-1H-inden-4-yl)carbamoyl)-2H-1,2,3-triazole-4-sulfonamide, sodium salt], for which the figures for the IC50 on NLRP3 [1] and at NLRP3 [2] were ≤ 1000 nM and ≤ 500 nM, respectively.

Take `COc1cc(-c2ccc3c(c2NC(=O)NS(=O)(=O)c2ccn(C4(CN(C)C)CCC4)n2)CCC3)ccn1` [Example 247, 1-(1-((Dimethylamino)methyl)cyclobutyl)-N-((5-(2-methoxypyridin-4-yl)-2,3-dihydro-1H-inden-4-yl)carbamoyl)-1H-pyrazole-3-sulfonamide, sodium salt]: the IC50 at NLRP3 [1] and on NLRP3 [2] was ≤ 500 nM in each case.

Consider `COc1cc(-c2ccc3c(c2NC(=O)NS(=O)(=O)c2ccn(C4CC4)n2)CCO3)ccn1` [Example 248, 1-Cyclopropyl-N-((5-(2-methoxypyridin-4-3-sulfonamide, sodium salt], for which the concentration for half-maximal inhibition (IC50) on NLRP3 [1] and on NLRP3 [2] was ≤ 500 nM each time.

Source of the values: patent US20200361895A1, “NOVEL SULFONAMIDE CARBOXAMIDE COMPOUNDS” (Inflazome Limited, priority 2017, published 2020).
